These are literature values, as cited in paper PMC10882020 (Heliyon, 2024).

pIC50: −log10 of the molar value.

In data set [1] the test system is ACE. The conditions noted are these: read-out: ACE inhibitory activity IC50; ref 11 (Zheng et al.).
For data set [2] the following is noted: orally administered at a dose of 100–150 mg/kg; ref 11 (Zheng et al.).

Usually pIC50 stands for the negative decadic logarithm of the IC50, by convention in mol/L. Take RGQVIYVL: in data set [1], the negative-log IC50 (pIC50) is 4.42. The antihypertensive effects entry in data set [2] is given as “significant antihypertensive effects”.
